Test results as given in US9499493B2, “2,4-pyrimidinediamine compounds and their uses” (Rigel Pharmaceuticals, Inc., priority 2002, dated 2016).

Experiments:
[1] = test system: cultured human mast cells (CHMC); assay: CHMC low cell density IgE activation: tryptase assay; format: cell-based; details: anti-IgE
Method in brief: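 Supernatant tryptase activity, assayed with substrate for 30 min at room temperature, served as the degranulation measure. Mast cells (1000-1500 per well depending on donor) sat 1 hr at 37° C in MT before a 30 min anti-IgE challenge at 37° C.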

[2] = test system: cultured human mast cells (CHMC); assay: CHMC low cell density ionomycin activation: tryptase assay; format: cell-based

| IC50 [1] [nM] | IC50 [2] [nM] | Structure (SMILES) |
| --- | --- | --- |
| 683 | > 10000 | OCCOc1cccc(Nc2ncc(F)c(Nc3ccc(CO)c(CO)c3)n2)c1 [R940292, N4-[3,4-Bis(hydroxymethyl)phenyl]-5-fluoro-N2-[3-(2-hydroxyethyleneoxy)phenyl]-2,4-pyrimidinediamine] |
| > 10000 | > 10000 | O=C(COc1cccc(Nc2ncc(F)c(Nc3ccc4c(c3)C(=O)OC4)n2)c1)NCC(O)CO (stereo not drawn) [R940293, N4-(3,3-Dihydroisobenzofuran-1-one-6-yl)-N2-[3-(N-2,3-dihydroxypropylamino)carbonylmethyleneoxyphenyl]-5-fluoro-2,4-pyrimidinediamine] |
| 1370 | > 10000 | COC(=O)c1cc2cc(Nc3ncc(F)c(Nc4ccc5c(c4)C(=O)OC5)n3)ccc2o1 [R940294, N4-(3,3-Dihydroisobenzofuranyl-1-one-6-yl)-5-fluoro-N2-(2-methoxycarbonylbenzofur-5-yl)-2,4-pyrimidinediamine] |
| 126 | 8810 | CC(C)(C)c1cccc(Nc2nc(Nc3cccc(OCC(=O)NCCO)c3)ncc2F)c1 [R940295, N4-(3-tert-Buthylpheny)-5-fluoro-N2-[3-(N-2-hydroxyethylamino)carbonylmethyleneoxyphenyl]-2,4-pyrimidinediamine] |
| 410 | > 10000 | CC(C)(C)c1cccc(Nc2nc(Nc3cccc(OCC(=O)NC(CO)CO)c3)ncc2F)c1 [R940296, N4-(3-tert-Butylpheny)-N2-[3-(N-1,3-dihydroxypropyl-2-amino)carbonylmethyleneoxyphenyl]-5-fluoro-2,4-pyrimidinediamine] |
| 2500 | > 10000 | CNC(=O)COc1cccc(Nc2ncc(F)c(Nc3cccc(C(N)=O)c3)n2)c1 [R940299, 5-Fluoro-N2-[3-(methylaminocarbonylmethyleneoxy)phenyl]-N4-(3-aminocarbonylphenyl)-2,4-pyrimidinediamine] |
| 10000 | > 10000 | CNC(=O)COc1cccc(Nc2ncc(F)c(Nc3ccc(OC)c(C(=O)OC)c3)n2)c1 [R940300, 5-Fluoro-N2-[3-(methylaminocarbonylmethyleneoxy)phenyl]-N4-(3-methyloxycarbonyl-4-methoxyphenyl)-2,4-pyrimidinediamine] |
| 1100 | > 10000 | CNC(=O)COc1cccc(Nc2ncc(F)c(Nc3ccc(OC)c(C(=O)NC)c3)n2)c1 [R940306, 5-Fluoro-N2-[3-(methylaminocarbonylmethyleneoxy)phenyl]-N4-(3-methylaminocarbonyl-4-methoxyphenyl)-2,4-pyrimidinediamine] |
| 291 | > 10000 | CC(C)c1cccc(Nc2nc(Nc3cccc(OCC(=O)NC[C@@H](O)CO)c3)ncc2F)c1 [R940307, (R)—N2-[3-(dihydroxypropylaminocarbonylmethyleneoxy)-phenyl]-5-fluoro-N4-(3-isopropylphenyl)-2,4-pyrimidinediamine] |
| 1130 | > 10000 | CNC(=O)COc1cccc(Nc2ncc(F)c(Nc3cccc(CN)c3)n2)c1 [R940309, N4-(3-Aminomethylenephenyl)-5-fluoro-N2-[3-(methylaminocarbonylmethyleneoxy)phenyl]-2,4-pyrimidinediamine] |
| 913 | > 10000 | CNCc1cccc(Nc2nc(Nc3cccc(OCC(=O)NC)c3)ncc2F)c1 [R940317, N4-(3-N-methylaminomethylenephenyl)-5-fluoro-N2-[3-(methylaminocarbonylmethyleneoxy)phenyl]-2,4-pyrimidinediamine] |
| 48 | > 10000 | CNC(=O)COc1cccc(Nc2ncc(F)c(Nc3ccc4c(c3)NC(=O)C(C)(C)O4)n2)c1 [R940323, N4-[(2,2-Dimethyl-4H-benzo[1,4]oxazin-3-one)-6-yl]-5-fluoro-N2-[3-(methylaminocarbonylmethyleneoxy)phenyl]-2,4-pyrimidinediamine] |
| 73 | > 10000 | Cn1ncc2cc(Nc3ncc(F)c(Nc4ccc5c(c4)NC(=O)C(C)(C)O5)n3)ccc21 [R940338, N4-[(2,2-Dimethyl-4H-benzo[1,4]oxazin-3-one)-6-yl]-5-fluoro-N2-(1-methylindazolin-5-yl)-2,4-pyrimidinediamine] |
| 44 | 7400 | O=C1Nc2cc(Nc3nc(Nc4cccc(O)c4)ncc3F)ccc2OC1(F)F [R940349, N4-[(2,2-Difluoro-4H-benzo[1,4]oxazin-3-one)-6-yl]-5-fluoro-N2-(3-hydroxyphenyl)-2,4-pyrimidinediamine] |
| 120 | 2700 | CC1(C)Oc2ccc(Nc3nc(Nc4ccc5c(c4)NC(=O)C(F)(F)O5)ncc3F)cc2NC1=O [R940351, N2-[(2,2-Difluoro-4H-benzo[1,4]oxazin-3-one)-6-yl]-N4-[(2,2-dimethyl-4H-benzo[1,4]oxazin-3-one)-6-yl]-5-fluoro-2,4-pyrimidinediamine] |
| 91 | > 10000 | COC(=O)c1cc2cc(Nc3ncc(F)c(Nc4ccc5c(c4)NC(=O)C(F)(F)O5)n3)ccc2o1 [R940353, N4-[(2,2-Difluoro-4H-benzo[1,4]oxazin-3-one)-6-yl]-5-fluoro-N2-(2-methoxycarbonylbenzofur-5-yl)-2,4-pyrimidinediamine] |
| > 10000 | > 10000 | NC(=O)COc1ccc(Nc2ncc(F)c(Nc3ccc(OCC(N)=O)cc3)n2)cc1 [R945025, N2,N4-Bis[4-(aminocarbonylmethyleneoxy)phenyl]-5-fluoro-2,4-pyrimidinediamine] |

| IC50 [1] [nM] | IC50 [2] [nM] | Structure (SMILES) |
| --- | --- | --- |
| 820 | > 10000 | Cn1nnc(COc2ccc(Nc3ncc(F)c(Nc4ccc(OCc5nnn(C)n5)cc4)n3)cc2)n1 [R945046, N2,N4-Bis[4-(2-methyl-1,2,3,4-tetrazol-5-yl)methyleneoxyphenyl]-5-fluoro-2,4-pyrimidinediamine] |
| 845 | > 10000 | Cn1nnc(COc2ccc(Nc3nc(Nc4ccc(OCc5nnnn5C)cc4)ncc3F)cc2)n1 [R945047, 5-Fluoro-N2,N4-[4-(1-methyl-1,2,3,4-tetrazol-5-yl)methyleneoxyphenyl], [4-(2-methyl-1,2,3,4-tetrazol-5-yl)methyleneoxyphenyl]-2,4-pyrimidinediamine] |
| 760 | > 10000 | Cn1nnnc1COc1ccc(Nc2ncc(F)c(Nc3ccc(OCc4nnnn4C)cc3)n2)cc1 [R945048, N2,N4-Bis[4-(1-methyl-1,2,3,4-tetrazol-5-yl)methyleneoxyphenyl]-5-fluoro-2,4-pyrimidinediamine] |
| 425 | 2480 | COC(=O)COc1ccc(Nc2ncc(F)c(Nc3ccc(OCC(N)=O)cc3)n2)cc1 [R945052, N4-(4-Aminocarbonylmethyleneoxyphenyl)-5-fluoro-N2-(4-methoxycarbonylmethyleneoxyphenyl)-2,4-pyrimidinediamine] |
| 118 | 1480 | COC(=O)COc1ccc(Nc2ncc(F)c(Nc3ccc(OCC#N)cc3)n2)cc1 [R945053, N4-(4-Cyanomethyleneoxyphenyl)5-fluoro-N2-(4-methoxycarbonylmethyleneoxyphenyl)-2,4-pyrimidinediamine] |
| 938 | > 10000 | COC(=O)COc1ccc(Nc2nc(Nc3ccc(OCC(N)=O)cc3)ncc2F)cc1 [R945060, N2-(4-Aminocarbonylmethyleneoxyphenyl)-5-fluoro-N4-(4-methoxycarbonylmethyleneoxyphenyl)-2,4-pyrimidinediamine] |
| 625 | > 10000 | COC(=O)COc1ccc(Nc2nc(Nc3ccc(OCC#N)cc3)ncc2F)cc1 [R945062, N2-(4-Cyanomethyleneoxyphenyl)-5-fluoro-N4-(4-methoxycarbonylmethyleneoxyphenyl)-2,4-pyrimidinediamine] |
| 1550 | > 10000 | NC(=O)COc1ccc(Nc2nc(Nc3cccc(O)c3)ncc2F)cc1 [R945063, N4-[4-(Aminocarbonylmethyleneoxy)phenyl]-5-fluoro-N2-(3-hydroxyphenyl)-2,4-pyrimidinediamine] |
| 530 | > 10000 | NC(=O)COc1ccc(Nc2ncc(F)c(Nc3cccc(O)c3)n2)cc1 [R945064, N2-[4-(Aminocarbonylmethyleneoxy)phenyl]-5-fluoro-N4-(3-hydroxyphenyl)-2,4-pyrimidinediamine] |
| 1750 | > 10000 | CON=C(N)COc1ccc(Nc2ncc(F)c(Nc3ccc(OCC(N)=NOC)cc3)n2)cc1 [R945096, N2,N4-Bis[4-[2-methoxyimino(amino)ethyleneoxy]phenyl]-5-fluoro-2,4-pyrimidinediamine] |
| 10000 | > 10000 | N#CCOc1ccc(Nc2nc(Nc3ccc(OCC(=O)O)cc3)ncc2F)cc1 [R945097, N2-(4-Carboxymethyleneoxyphenyl)-N4-(4-cyanomethyleneoxyphenyl)-5-fluoro-2,4-pyrimidinediamine] |
| 668 | > 10000 | COC(=O)COc1cccc(Nc2ncc(F)c(Nc3cccc(O)c3)n2)c1 [R945118, 5-Fluoro-N4-(3-hydroxyphenyl)-N2-(3-methoxycarbonylmethyleneoxyphenyl)-2,4-pyrimidinediamine] |
| 690 | 7850 | COC(=O)COc1cccc(Nc2ncc(F)c(Nc3ccc4c(c3)OCCO4)n2)c1 [R945124, N4-(3,4-Ethylenedioxyphenyl)-5-fluoro-N2-(3-methoxycarbonylmethyleneoxyphenyl)-2,4-pyrimidinediamine] |
| 896 | > 10000 | COC(=O)COc1cccc(Nc2ncc(F)c(Nc3ccc(OC(C)C)cc3)n2)c1 [R945125, 5-Fluoro-N4-(4-isopropoxyphenyl)-N2-(3-methoxycarbonylmethyleneoxyphenyl)-2,4-pyrimidinediamine] |
| > 10000 | > 10000 | O=C(O)COc1cccc(Nc2ncc(F)c(Nc3cccc(O)c3)n2)c1 [R945126, N2-(3-Carboxymethyleneoxyphenyl)-5-fluoro-N4-(3-hydroxyphenyl)-2,4-pyrimidinediamine] |
| 704 | 8960 | Cc1nc(COc2cccc(Nc3ncc(F)c(Nc4cccc(O)c4)n3)c2)no1 [R945127, 5-Fluoro-N4-(3-hydroxyphenyl)-N2-[3-(5-methyl-1,2,4-oxadiazol-3-yl)methyleneoxyphenyl]-2,4-pyrimidinediamine] |
